Values of other authors in US7057165B2, “Probe for mass spectrometry” (Sense Proteomic Ltd., priority 2001, dated 2006).

Biological target: T1, lectin from Arachis hypogea (Arachis hypogaea, UniProt P02872)
T1 construct: biotin (biotinylated lectin)
T1 sequence (P02872 24-259 limits assumed): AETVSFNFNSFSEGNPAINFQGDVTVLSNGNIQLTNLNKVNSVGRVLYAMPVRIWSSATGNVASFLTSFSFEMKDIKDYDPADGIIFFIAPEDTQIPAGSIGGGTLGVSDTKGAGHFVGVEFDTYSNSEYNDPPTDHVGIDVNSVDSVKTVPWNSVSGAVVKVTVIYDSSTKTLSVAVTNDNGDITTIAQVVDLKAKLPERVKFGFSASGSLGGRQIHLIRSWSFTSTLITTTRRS

SMILES: OC[C@H]1O[C@@H](O[C@H]2[C@H](O)[C@@H](O)C(O)O[C@@H]2CO)[C@H](O)[C@@H](O)[C@H]1O (stereo partly shown) [lactose]
- binding constant for this lectin: millimolar range
